Results: ChEMBL document CHEMBL1795291, “Computer- and structure-based lead design for epigenetic targets” (Bioorg Med Chem, 2011)

Legend:
[1] = target: T1, Histone-lysine N-methyltransferase EHMT2 (Homo sapiens, UniProt Q96KQ7); test: Inhibition of lysine methyltransferase G9a
T1 sequence (Q96KQ7 whole entry): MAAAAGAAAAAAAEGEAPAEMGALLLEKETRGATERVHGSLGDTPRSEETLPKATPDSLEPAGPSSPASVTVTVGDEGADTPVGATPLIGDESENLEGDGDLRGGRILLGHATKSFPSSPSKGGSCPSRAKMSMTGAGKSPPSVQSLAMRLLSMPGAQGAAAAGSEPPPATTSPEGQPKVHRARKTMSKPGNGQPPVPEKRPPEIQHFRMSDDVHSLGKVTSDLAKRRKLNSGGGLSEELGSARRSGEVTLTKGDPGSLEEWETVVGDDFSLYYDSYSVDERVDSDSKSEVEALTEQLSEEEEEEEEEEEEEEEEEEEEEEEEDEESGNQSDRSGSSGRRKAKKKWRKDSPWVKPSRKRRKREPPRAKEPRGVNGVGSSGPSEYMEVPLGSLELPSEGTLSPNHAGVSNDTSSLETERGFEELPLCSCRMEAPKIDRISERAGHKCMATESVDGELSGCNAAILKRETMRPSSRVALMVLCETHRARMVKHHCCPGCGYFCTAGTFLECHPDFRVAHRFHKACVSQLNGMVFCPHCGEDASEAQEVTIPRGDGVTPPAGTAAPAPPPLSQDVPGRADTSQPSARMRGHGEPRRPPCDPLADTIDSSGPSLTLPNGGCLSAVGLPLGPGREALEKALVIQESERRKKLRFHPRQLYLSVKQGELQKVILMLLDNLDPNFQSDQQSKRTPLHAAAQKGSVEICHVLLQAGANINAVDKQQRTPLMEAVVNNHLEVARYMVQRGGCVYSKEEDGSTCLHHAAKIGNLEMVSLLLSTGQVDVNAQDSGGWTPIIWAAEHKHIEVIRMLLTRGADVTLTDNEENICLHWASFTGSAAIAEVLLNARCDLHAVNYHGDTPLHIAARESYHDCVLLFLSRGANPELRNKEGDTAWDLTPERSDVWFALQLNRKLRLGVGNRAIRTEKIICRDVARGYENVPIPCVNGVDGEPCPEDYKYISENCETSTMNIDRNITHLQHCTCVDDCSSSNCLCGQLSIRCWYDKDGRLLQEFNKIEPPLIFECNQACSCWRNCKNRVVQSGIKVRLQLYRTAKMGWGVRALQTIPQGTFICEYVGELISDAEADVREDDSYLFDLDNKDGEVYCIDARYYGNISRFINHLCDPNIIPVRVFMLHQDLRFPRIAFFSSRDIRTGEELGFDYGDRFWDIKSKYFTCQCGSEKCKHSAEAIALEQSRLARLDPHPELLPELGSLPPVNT

[2] = Inhibition of HDAC by fluorescence assay
[3] = target: T2, NAD-dependent protein deacetylase sirtuin-2 (Homo sapiens, UniProt Q8IXJ6); test: Inhibition of human Sirt2
T2 sequence (Q8IXJ6 whole entry): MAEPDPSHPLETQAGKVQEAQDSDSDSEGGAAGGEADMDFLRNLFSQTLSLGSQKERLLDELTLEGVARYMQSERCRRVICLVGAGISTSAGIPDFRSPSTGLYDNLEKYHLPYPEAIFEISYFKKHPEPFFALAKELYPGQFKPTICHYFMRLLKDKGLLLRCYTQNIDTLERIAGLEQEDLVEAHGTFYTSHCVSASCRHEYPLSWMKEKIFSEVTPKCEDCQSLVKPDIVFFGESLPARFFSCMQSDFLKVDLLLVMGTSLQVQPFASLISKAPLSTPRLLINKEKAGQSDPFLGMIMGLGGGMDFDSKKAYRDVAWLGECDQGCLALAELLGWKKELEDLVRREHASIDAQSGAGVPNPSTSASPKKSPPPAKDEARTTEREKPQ

With `COc1ccc(C(=O)Oc2ccc(CCn3c(NC(=O)c4ccc(C(F)(F)F)cc4)nc4cc(C(=O)O)ccc43)cc2)cc1` the IC50 [1] was 106 nM.

In the case of `CCc1nnc(NS(=O)(=O)c2ccc(N/C=C3\Sc4ccccc4C3=O)cc2)s1`, the IC50 [2] is reported as 4.3 µM.

In the case of `O=C1NC(=S)NC(=O)C1=Cc1ccc(-c2ccccc2)cc1`, the IC50 [3] is reported as 8.7 µM.
